Results published in ChEMBL document CHEMBL4765382, “Novel anilide and benzylamide derivatives of arylpiperazinylalkanoic acids as 5-HT/5-HT receptor antagonists and phosphodiesterase 4/7 inhibitors with procognitive and antidepressant activity” (Eur J Med Chem, 2020).
The source made the active and inactive calls. No cut-off for these calls is given here.

Key:
[1] = molecular target: T1, 5-hydroxytryptamine receptor 7 (Homo sapiens, UniProt P34969); assay: Displacement of [3H]-5-CT from human 5HT7 receptor expressed in HEK293 cells measured after 1 hr by microbeta counting method; format: cell-based
T1 sequence (P34969 whole entry): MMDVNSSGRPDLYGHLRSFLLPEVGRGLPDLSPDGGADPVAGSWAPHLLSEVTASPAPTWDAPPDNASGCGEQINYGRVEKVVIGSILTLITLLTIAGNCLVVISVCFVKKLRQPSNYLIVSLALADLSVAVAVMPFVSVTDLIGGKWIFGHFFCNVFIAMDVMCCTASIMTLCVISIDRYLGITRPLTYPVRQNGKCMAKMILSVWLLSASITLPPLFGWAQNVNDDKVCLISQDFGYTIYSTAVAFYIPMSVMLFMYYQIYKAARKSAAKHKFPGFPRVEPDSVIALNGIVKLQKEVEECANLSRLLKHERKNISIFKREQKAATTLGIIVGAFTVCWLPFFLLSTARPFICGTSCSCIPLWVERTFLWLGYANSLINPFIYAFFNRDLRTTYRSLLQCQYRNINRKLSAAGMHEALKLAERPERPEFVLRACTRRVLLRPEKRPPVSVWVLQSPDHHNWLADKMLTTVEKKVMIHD

[2] = Metabolic stability of the compound in rat liver microsomes assessed as parent compound remaining at 50 uM preincubated for 5 mins followed by incubation with NADPH regenerating system for 120 mins by LC/MS analysis; format: ADME, Microsome; conditions: read-out: Stabilty
[3] = molecular target: High affinity 3',5'-cyclic-AMP phosphodiesterase 7A (Homo sapiens, UniProt Q13946); assay: Inhibition of recombinant human PDE7A expressed in Sf9 cells measured after 10 mins by luminescence based assay
Sequence of High affinity 3',5'-cyclic-AMP phosphodiesterase 7A (Q13946 whole entry): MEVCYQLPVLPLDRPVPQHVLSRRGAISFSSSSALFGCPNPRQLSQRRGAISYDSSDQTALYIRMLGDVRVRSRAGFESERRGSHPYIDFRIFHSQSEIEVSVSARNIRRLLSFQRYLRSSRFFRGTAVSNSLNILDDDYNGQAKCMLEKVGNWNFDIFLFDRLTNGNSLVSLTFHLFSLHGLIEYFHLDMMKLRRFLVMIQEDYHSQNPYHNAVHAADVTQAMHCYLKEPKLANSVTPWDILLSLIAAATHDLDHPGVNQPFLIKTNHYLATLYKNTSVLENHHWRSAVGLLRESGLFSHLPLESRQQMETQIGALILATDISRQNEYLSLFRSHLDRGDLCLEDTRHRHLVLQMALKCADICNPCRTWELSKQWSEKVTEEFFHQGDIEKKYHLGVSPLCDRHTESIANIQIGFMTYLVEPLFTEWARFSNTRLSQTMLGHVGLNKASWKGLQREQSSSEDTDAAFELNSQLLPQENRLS

[4] = Effective permeability of the compound at 200 uM incubated for 5 hrs by PAMPA based UPLC/MS analysis; format: ADME; conditions: read-out: Peff
[5] = molecular target: 3',5'-cyclic-AMP phosphodiesterase 4B (Homo sapiens, UniProt Q07343); assay: Inhibition of recombinant human PDE4B expressed in Sf9 cells measured after 10 mins by luminescence based assay
Sequence of 3',5'-cyclic-AMP phosphodiesterase 4B (Q07343 whole entry): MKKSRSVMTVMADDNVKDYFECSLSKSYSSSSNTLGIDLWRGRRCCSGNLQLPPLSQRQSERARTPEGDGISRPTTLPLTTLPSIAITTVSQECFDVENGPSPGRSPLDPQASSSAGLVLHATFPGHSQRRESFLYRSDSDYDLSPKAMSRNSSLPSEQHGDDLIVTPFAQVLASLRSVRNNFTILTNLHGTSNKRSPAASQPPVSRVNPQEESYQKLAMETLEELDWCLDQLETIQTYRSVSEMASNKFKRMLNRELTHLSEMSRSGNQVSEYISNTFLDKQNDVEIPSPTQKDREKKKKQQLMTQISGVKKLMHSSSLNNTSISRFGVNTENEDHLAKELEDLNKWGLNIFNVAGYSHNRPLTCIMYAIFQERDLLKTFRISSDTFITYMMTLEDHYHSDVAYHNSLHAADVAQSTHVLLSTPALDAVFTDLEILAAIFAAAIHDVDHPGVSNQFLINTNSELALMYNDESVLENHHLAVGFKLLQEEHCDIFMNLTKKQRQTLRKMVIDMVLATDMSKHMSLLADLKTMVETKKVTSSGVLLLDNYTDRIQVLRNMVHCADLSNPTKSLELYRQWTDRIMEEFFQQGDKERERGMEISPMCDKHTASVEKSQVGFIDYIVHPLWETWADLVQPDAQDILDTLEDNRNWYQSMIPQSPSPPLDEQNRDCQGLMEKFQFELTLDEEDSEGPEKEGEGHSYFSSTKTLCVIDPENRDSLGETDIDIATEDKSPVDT

[6] = molecular target: T2, 5-hydroxytryptamine receptor 1A (Homo sapiens, UniProt P08908); assay: Displacement of [3H]8-OH-DPAT from human 5HT1A receptor expressed in HEK293 cells measured after 1 hr by microbeta counting method; format: cell-based
T2 sequence (P08908 whole entry): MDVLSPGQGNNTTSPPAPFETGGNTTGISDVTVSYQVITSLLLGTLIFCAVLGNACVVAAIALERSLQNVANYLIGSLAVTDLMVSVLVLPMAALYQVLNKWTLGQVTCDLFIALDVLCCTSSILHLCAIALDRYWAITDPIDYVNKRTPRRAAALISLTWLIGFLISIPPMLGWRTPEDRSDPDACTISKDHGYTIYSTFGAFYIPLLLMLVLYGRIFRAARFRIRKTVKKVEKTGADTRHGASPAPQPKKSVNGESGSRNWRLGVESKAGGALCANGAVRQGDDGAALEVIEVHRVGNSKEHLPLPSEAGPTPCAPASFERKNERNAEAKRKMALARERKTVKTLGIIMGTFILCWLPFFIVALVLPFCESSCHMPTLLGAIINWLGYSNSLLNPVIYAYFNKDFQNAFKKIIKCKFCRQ

[7] = molecular target: T2, 5-hydroxytryptamine receptor 1A; assay: Binding affinity to 5HT-1A receptor (unknown origin)
[8] = molecular target: T1, 5-hydroxytryptamine receptor 7; assay: Binding affinity to 5HT7 receptor (unknown origin)
Rattus norvegicus = assay: Antidepressant-like activity in Wistar rat assessed as reduction in immobility time at 20 mg/kg, ip measured after 30 mins by Forced swimming test; format: functional; conditions: 0.5 h
[9] = Toxicity in Wistar rat assessed as total ambulations at 20 mg/kg, ip measured after 30 mins by open field test; format: organism-based; conditions: in vivo, 0.5 h
[10] = Toxicity in Wistar rat assessed as total distance travelled at 20 mg/kg, ip measured after 30 mins by open field test (reference value: 1897.3 +/-98.6 cm); format: organism-based; conditions: in vivo, 0.5 h
[11] = Toxicity in Wistar rat assessed as rearings at 20 mg/kg, ip measured after 30 mins by open field test; format: organism-based; conditions: in vivo, 0.5 h
[12] = Toxicity in Wistar rat assessed as total ambulations at 3 to 10 mg/kg, ip measured after 60 mins by open field test; format: organism-based; conditions: in vivo, 1 h
[13] = Toxicity in Wistar rat assessed as rearings at 3 to 10 mg/kg, ip measured after 60 mins by open field test; format: organism-based; conditions: in vivo, 1 h
[14] = molecular target: T1, 5-hydroxytryptamine receptor 7; assay: Antagonist activity at recombinant human 5HT7 receptor expressed in CHO-K1 cells co-transfected with beta-lactamase reporter gene assessed as inhibition of serotonin-induced cAMP accumulation measured after 1 hr by LANCE TR-FRET assay; format: functional, cell-based; conditions: filed as antagonist
[15] = molecular target: T1, 5-hydroxytryptamine receptor 7; assay: Agonist activity at recombinant human 5HT7 receptor expressed in CHO-K1 cells co-transfected with beta-lactamase reporter gene assessed as cAMP accumulation measured after 1 hr by LANCE TR-FRET assay; format: functional, cell-based

| Ki [1] [nM] | Ki [6] [nM] | SMILES | further results |
| --- | --- | --- | --- |
| 514 | – | COc1ccccc1N1CCN(CCCCCC(=O)Nc2ccc(C(C)(C)C)cc2)CC1 | – |
| 151 | – | COc1ccccc1N1CCN(CCCCC(=O)Nc2cccc(C(C)C)c2)CC1.Cl | remaining at 2 h, 50 µM [2]: 6.5%; IC50 [3]: > 200000 nM; Papp at 5 h, 200 µM [4]: 8.6 ×10⁻⁶ cm/s; IC50 [5]: 88100 nM |
| 3280 | 287 | COc1ccccc1N1CCN(CCCC(=O)Nc2ccc(C(=O)OC(C)(C)C)cc2)CC1 | – |
| – | – | O=S(=O)(NCCCCN1CCN(c2nsc3ccccc23)CC1)c1c[nH]c2ncccc12 | Ki [7]: 78 nM; Ki [8]: 93 nM |
| 927 | – | COc1ccccc1N1CCN(CCCCC(=O)Nc2cccc(C(=O)OC(C)(C)C)c2)CC1 | – |
| 869 | 292 | COc1ccccc1CNC(=O)CCCN1CCN(c2ccccc2OC)CC1 | – |
| – | – | CCn1cc(C(=O)O)c(=O)c2cc(F)c(N3CCNCC3)cc21 [NORFLOXACIN] | Papp at 5 h, 200 µM [4]: 0.6 ×10⁻⁶ cm/s |
| 391 | 138 | COc1ccccc1N1CCN(CCCCC(=O)NCc2ccc(C(C)(C)C)cc2)CC1 | – |
| 154 | – | COc1ccccc1N1CCN(CCCCCC(=O)Nc2cc(C(C)(C)C)ccc2O)CC1 | – |
| 471 | 405 | COc1ccccc1N1CCN(CCCC(=O)Nc2ccccc2O)CC1 | – |
| 515 | 64 | COc1ccccc1CNC(=O)CCCCCN1CCN(c2ccccc2OC)CC1 | – |
| 289 | 70 | COc1ccccc1N1CCN(CCCCCC(=O)NCc2ccccc2O)CC1 | – |
| 1140 | 526 | COc1ccccc1N1CCN(CCCC(=O)Nc2ccccc2C(N)=O)CC1 | – |
| 366 | 82 | COc1ccccc1CNC(=O)CCCCN1CCN(c2ccccc2OC)CC1 | – |
| 130 | 224 | COc1ccccc1N1CCN(CCCC(=O)Nc2cccc(C(C)(C)C)c2)CC1 | – |
| 300 | 31 | COc1ccccc1N1CCN(CCCCC(=O)Nc2ccccc2O)CC1 | – |
| 260 | 69 | CCC(C)c1ccc(NC(=O)CCCCCN2CCN(c3ccccc3OC)CC2)cc1 (centres undefined) | – |
| 1870 | 82 | COc1ccccc1N1CCN(CCCCC(=O)Nc2ccccc2C(N)=O)CC1 | – |

| Ki [1] [nM] | Ki [6] [nM] | SMILES | further results |
| --- | --- | --- | --- |
| 159 | 61 | COc1ccccc1N1CCN(CCCCC(=O)Nc2cc(C(C)(C)C)ccc2O)CC1 | IC50 [3]: > 200000 nM; IC50 [5]: 36500 nM |
| – | – | CN(C)CCC[C@@]1(c2ccc(F)cc2)OCc2cc(C#N)ccc21 [ESCITALOPRAM] | inhibition in vivo at 20 mg/kg (Rattus norvegicus): 49%; Activity [9]: Non-Toxic; Activity [10]: 2058.5 cm; Activity [11]: Non-Toxic |
| – | – | COc1ccccc1N1CCN(CCCCC(=O)Nc2ccc(C(C)C)cc2)CC1.Cl | remaining at 2 h, 50 µM [2]: 90.1%; IC50 [3]: 151000 nM; Papp at 5 h, 200 µM [4]: 10.5 ×10⁻⁶ cm/s; IC50 [5]: 80400 nM; Activity [12]: Non-Toxic; Activity [13]: Non-Toxic |
| 328 | – | COc1ccccc1N1CCN(CCCC(=O)Nc2cc(C(C)(C)C)ccc2O)CC1 | IC50 [3]: 57000 nM; IC50 [5]: 69000 nM |
| 354 | 37 | CCC(C)c1ccc(NC(=O)CCCN2CCN(c3ccccc3OC)CC2)cc1 (centres undefined) | – |
| 75 | 16 | COc1ccccc1N1CCN(CCCCC(=O)Nc2cccc(C(C)(C)C)c2)CC1.Cl | remaining at 2 h, 50 µM [2]: 23.8%; IC50 [3]: > 200000 nM; Kb [14]: 54 nM; Activity [15]: inactive; Papp at 5 h, 200 µM [4]: 4.8 ×10⁻⁶ cm/s; IC50 [5]: 130000 nM |
| 343 | – | COc1ccccc1N1CCN(CCCCC(=O)NCc2ccccc2O)CC1 | – |
| 954 | 150 | COc1ccccc1N1CCN(CCCC(=O)Nc2ccc(C(C)C)cc2)CC1 | – |
| 254 | 95 | COc1ccccc1N1CCN(CCCCCC(=O)Nc2ccccc2O)CC1 | – |
| 319 | – | COc1ccccc1N1CCN(CCCC(=O)NCc2ccccc2O)CC1 | – |
| 157 | 187 | COc1ccccc1N1CCN(CCCC(=O)Nc2cccc(C(C)C)c2)CC1 | – |
| 323 | 14 | CCC(C)c1ccc(NC(=O)CCCCN2CCN(c3ccccc3OC)CC2)cc1 (centres undefined) | IC50 [3]: 126000 nM; IC50 [5]: 169000 nM |
| 434 | 43 | COc1ccccc1N1CCN(CCCCCC(=O)Nc2ccc(C(C)C)cc2)CC1 | – |
| 1200 | – | COc1ccccc1N1CCN(CCCC(=O)Nc2ccc(C(C)(C)C)cc2)CC1 | IC50 [3]: 27000 nM; IC50 [5]: 96000 nM |
| 799 | 125 | COc1ccccc1N1CCN(CCCCCC(=O)Nc2ccc(C(=O)OC(C)(C)C)cc2)CC1 | – |
| 190 | 53 | COc1ccccc1N1CCN(CCCCCC(=O)Nc2cccc(C(C)(C)C)c2)CC1 | – |
| 141 | 34 | COc1ccccc1N1CCN(CCCCCC(=O)Nc2cccc(C(C)C)c2)CC1 | – |
| 496 | 21 | COc1ccccc1N1CCN(CCCCC(=O)Nc2ccc(C(C)(C)C)cc2)CC1 | IC50 [3]: > 200000 nM; IC50 [5]: 138000 nM |
